Counter-ions that a name gives are not always drawn.
Assays:
[1] = test system: TAZ nuclear translocation in SW1990 cells; experiment: TAZ Nuclear Translocation Assay; assay type: cell-based; settings: Homo sapiens, 4 hours
Protocol: The SW1990 cells (ATCC, CRL2172) were seeded at 5000 cells/well by adding 30 μL/well of cells in RPMI1640, 10% FBS, 2 mM glutamine culture media to a 384-well plate (Greiner 781091). The cells were incubated overnight at 37° C. Next day, test compounds were directly added to the cells using the Echo Liquid Handler (Labcyte), incubate at 37° C. for 4 hours. The cells were fixed with 4% paraformaldehyde and incubate for 20 minutes at room temperature. After washing three times with 100 μL PBS, 0.5% Triton X-100 was added to permeabilize the cells, incubate at room temperature for 5 minutes, following by washing the cells three times with PBS. 3% BSA was added to the cells, incubate for one hour at room temperature, following by washing three times with PBS. 50 μL of 1:750 diluted rabbit Anti-TAZ (Cell signaling D316D) in 3% BSA was added to the cells, incubate at 4° C. overnight. Next day, after washing the cells three times with PBS, 50 μL of 1:1250 diluted donkey anti-Rabbit, Alexa Fluor 488 (Invitrogen A21206) and 1:6250 diluted Hoechst 33342 (Molecular Probes H-21492) in 3% BSA was added to the cells, incubate at room temperature for one hour. The cells were washed three times with PBS, then image with the CellInsight CX7 High-Content Imager. The ratio of nuclear mean fluorescence intensity and cytoplasmic ring region mean fluorescence intensity was calculated. The % inhibition was normalized using DMSO as 0% inhibition and an inhibitor control as 100% inhibition. The EC50 values were calculated by fitting the % inhibition with a nonlinear four-parameter logistical equation.

[2] = target: Human LATS2 catalytic domain (Homo sapiens (Human), UniProt Q9NRM7); experiment: LATS2 High ATP HTRF Assay; assay type: biochemical; settings: no asterisk: LATS2 High ATP HTRF Assay, 5000 μM ATP, 0.05 nM LATS2
Protocol: Human LATS2 catalytic domain which contains the amino acids G553-V1088 (accession NP_055387) was purified in-house. The LATS2 catalytic domain was co-purified with Mob1b (accession NP_775739). The LATS2 biochemical HTRF assay was performed using the HTRF KinEASE-STK S1 Kit (Cisbio, Cat #62ST1PEC), following the protocol from the manufacturer. Compounds were dispensed by the Echo Liquid Handler (Labcyte) into a white 384-well plate (PerkinElmer, Cat #6008289). 3 uL of 2×LATS2 enzyme solution was added to the compounds, following by a 10 minute incubation at room temperature. Then, 2×ATP and STK S1 peptide solution was added to initiate the one hour enzyme reaction at room temperature. The final condition of the reaction was 0.2 nM LATS2, 50 μM ATP, 0.5 μM STK S1 peptide in 50 mM HEPES pH7.2, 10 mM MgCl2, 0.1% BGG, 0.005% Brij-35, 1 mM DTT. The reaction was quenched by adding 6 uL of the detection mixture which contained Streptavidin XL665 and STK Antibody-Cryptate (Cisbio), incubate for 1 hour at room temperature. The HTRF (665 nm/620 nm) signal was read on the Envision plater reader (PerkinElmer). The IC50 values were determined by fitting the % inhibition with a nonlinear four-parameter logistical equation. The Ki values were calculated using the Cheng-Prusoff equation for a competitive inhibitor, IC50═Ki (1+S/Km)+M [E] with ATP Km for LATS2=105 μM.
The LATS2 high ATP HTRF assay was performed using the same protocol as the Standard LATS2 HTRF assay. The final condition of the reaction was 0.05 nM LATS2, 5000 μM ATP, 0.5 μM STK S1 peptide in 50 mM HEPES pH7.2, 10 mM MgCl2, 0.1% BGG, 0.005% Brij-35, 1 mM DTT and the 2 hours enzyme reaction at room temperature.

Human LATS2 catalytic domain, sequence (Q9NRM7 553-1088): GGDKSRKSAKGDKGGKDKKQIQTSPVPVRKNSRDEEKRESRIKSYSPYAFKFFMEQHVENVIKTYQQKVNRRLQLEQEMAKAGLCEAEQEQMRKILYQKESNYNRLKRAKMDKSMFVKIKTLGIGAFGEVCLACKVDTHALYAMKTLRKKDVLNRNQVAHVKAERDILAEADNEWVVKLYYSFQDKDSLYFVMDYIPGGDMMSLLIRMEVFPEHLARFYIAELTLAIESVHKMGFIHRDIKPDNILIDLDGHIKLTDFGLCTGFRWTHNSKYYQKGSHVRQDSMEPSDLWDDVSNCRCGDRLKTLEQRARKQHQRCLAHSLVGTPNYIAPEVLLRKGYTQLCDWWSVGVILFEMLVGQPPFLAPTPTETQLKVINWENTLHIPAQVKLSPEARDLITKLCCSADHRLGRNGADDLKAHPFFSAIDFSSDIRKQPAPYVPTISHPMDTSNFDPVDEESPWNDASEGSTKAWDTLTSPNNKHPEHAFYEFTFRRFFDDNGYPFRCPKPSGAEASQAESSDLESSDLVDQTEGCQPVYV
Human LATS2 catalytic domain, sequence (Q7L9L4 whole entry partner, the tested form may be a part): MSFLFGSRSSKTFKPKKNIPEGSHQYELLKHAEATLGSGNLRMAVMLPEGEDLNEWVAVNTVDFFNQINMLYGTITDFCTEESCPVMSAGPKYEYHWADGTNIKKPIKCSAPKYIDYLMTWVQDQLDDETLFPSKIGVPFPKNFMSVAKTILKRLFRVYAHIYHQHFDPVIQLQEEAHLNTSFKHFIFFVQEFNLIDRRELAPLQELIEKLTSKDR

EC50 [1] [nM]	Ki [2] [nM]	Structure (SMILES)
780	0.35	COCC1CC2(CCN(c3nc(-c4ccncc4)nc4cnccc34)CC2)CN1C (racemic) [Example 217, 4-(3-(methoxymethyl)-2-methyl-2,8-diazaspiro[4.5]decan-8-yl)-2-(pyridin-4-yl)pyrido[3,4-d]pyrimidine]
> 10000	0.037	Cc1n[nH]cc1-c1nc(N2CCC3(CCNC3)CC2)c2ccncc2n1 [Compound 142, 2-(3-methyl-1H-pyrazol-4-yl)-4-(2,8-diazaspiro[4.5]decan-8-yl)pyrido[3,4-d]pyrimidine]
2300	0.086	Cc1n[nH]cc1-c1nc(N2CCC3(CCN(C)C3)CC2)c2cc(Cc3cccnc3)ncc2n1 [Example 227, 2-(3-methyl-1H-pyrazol-4-yl)-4-(2-methyl-2,8-diazaspiro[4.5]decan-8-yl)-6-(pyridin-3-ylmethyl)pyrido[3,4-d]pyrimidine]
1000	0.043	Cc1[nH]ncc1-c1nc(N2CCC3(CC2)CCN([C@@H]2CC[C@@H]2O)C3)c2ccncc2n1 (single isomer, unassigned) [Example 230]
> 10000	2.26	Cc1[nH]ncc1-c1nc(N2CCC3(CCNC3)CC2)c2c(F)cncc2n1 [Compound 186, 5-fluoro-2-(5-methyl-1H-pyrazol-4-yl)-4-(2,8-diazaspiro[4.5]decan-8-yl)pyrido[3,4-d]pyrimidine]
860	0.047	Cc1[nH]ncc1-c1nc(N2CCC3(CC2)CCN([C@H]2CCC[C@@H]2O)C3)c2ccncc2n1 (single isomer, unassigned) [Compound 185]
1200	0.45	NC(=O)CN1CCC2(CCN(c3nc(-c4ccncc4)nc4cnccc34)CC2)C1 [Compound 130, 2-(8-(2-(pyridin-4-yl)pyrido[3,4-d]pyrimidin-4-yl)-2,8-diazaspiro[4.5]decan-2-yl)acetamide]
100	0.018	C=CCOc1cncc2nc(-c3ccncc3)nc(N3CCC4(CCNC4)CC3)c12 [Compound 254, 5-(allyloxy)-2-(pyridin-4-yl)-4-(2,8-diazaspiro[4.5]decan-8-yl)pyrido[3,4-d]pyrimidine]
2400	0.25	NC(=O)CCN1CCC2(CCN(c3nc(-c4ccncc4)nc4cnccc34)CC2)C1 [Compound 132, 3-(8-(2-(pyridin-4-yl)pyrido[3,4-d]pyrimidin-4-yl)-2,8-diazaspiro[4.5]decan-2-yl)propanamide]
3900	1.9	COCc1cncc2nc(-c3ccncc3)nc(N3CCC4(CCNC4)CC3)c12 [Compound 243, 5-(Methoxymethyl)-2-(pyridin-4-yl)-4-(2,8-diazaspiro[4.5]decan-8-yl)pyrido[3,4-d]pyrimidine]
310	0.02	COc1cnc(Cl)c2nc(-c3ccncc3)nc(N3CCC4(CCN(C)C4)CC3)c12 [Compound 275, 8-chloro-5-methoxy-4-(2-methyl-2,8-diazaspiro[4.5]decan-8-yl)-2-(pyridin-4-yl)pyrido[3,4-d]pyrimidine]
> 10000	4.9	OCc1cncc2nc(-c3ccncc3)nc(N3CCC4(CCNC4)CC3)c12 [Example 239, (2-(Pyridin-4-yl)-4-(2,8-diazaspiro[4.5]decan-8-yl)pyrido[3,4-d]pyrimidin-5-yl)methanol]
100	0.033	COc1cncc2nc(-c3ccncc3)nc(N3CCC4(CCN(CC(C)(C)O)C4)CC3)c12 [Compound 250, 1-(8-(5-methoxy-2-(pyridin-4-yl)pyrido[3,4-d]pyrimidin-4-yl)-2,8-diazaspiro[4.5]decan-2-yl)-2-methylpropan-2-ol]
170	0.23	OC1(CN2CCC3(CCN(c4nc(-c5ccncc5)nc5cnccc45)CC3)C2)CCC1 [Example 205, 1-((8-(2-(Pyridin-4-yl)pyrido[3,4-d]pyrimidin-4-yl)-2,8-diazaspiro[4.5]decan-2-yl)methyl)cyclobutan-1-ol]
1200	0.49	Cc1n[nH]cc1-c1nc(N2CCC3(CCN(C)C3)CC2)c2cc(Cc3ccncc3)ncc2n1 [Example 236, 2-(3-methyl-1H-pyrazol-4-yl)-4-(2-methyl-2,8-diazaspiro[4.5]decan-8-yl)-6-(pyridin-4-ylmethyl)pyrido[3,4-d]pyrimidine]
> 10000	2.02	Cc1cc2c(N3CCC4(CCNC4)CC3)nc(-c3c[nH]nc3C)nc2cn1 [Compound 160, 6-methyl-2-(3-methyl-1H-pyrazol-4-yl)-4-(2,8-diazaspiro[4.5]decan-8-yl)pyrido[3,4-d]pyrimidine]
> 10000	2.88	Cc1n[nH]cc1-c1nc(N2CCC3(CCNC3)CC2)c2ccnc(C)c2n1 [Compound 163, 8-methyl-2-(3-methyl-1H-pyrazol-4-yl)-4-(2,8-diazaspiro[4.5]decan-8-yl)pyrido[3,4-d]pyrimidine]
290	0.11	CN1CCC2(CCN(c3nc(-c4ccncc4)nc4cncc(OC5CC(C#N)C5)c34)CC2)C1 (stereo not drawn) [Compound 277, 3-((4-(2-Methyl-2,8-diazaspiro[4.5]decan-8-yl)-2-(pyridin-4-yl)pyrido[3,4-d]pyrimidin-5-yl)oxy)cyclobutane-1-carbonitrile]
970	0.057	OCC1CC2(CCN(c3nc(-c4ccncc4)nc4cnccc34)CC2)CN1 (stereo not drawn) [Compound 196, (8-(2-(pyridin-4-yl)pyrido[3,4-d]pyrimidin-4-yl)-2,8-diazaspiro[4.5]decan-3-yl)methanol]
1800	2.1	Brc1cncc2nc(-c3ccncc3)nc(N3CCC4(CCNC4)CC3)c12 [Example 225, 5-Bromo-2-(pyridin-4-yl)-4-(2,8-diazaspiro[4.5]decan-8-yl)pyrido[3,4-d]pyrimidine]
140	0.034	COc1cncc2nc(-c3ccncc3)nc(N3CCC4(CCN(CC5COC5)C4)CC3)c12 [Compound 255, 5-Methoxy-4-(2-(oxetan-3-ylmethyl)-2,8-diazaspiro[4.5]decan-8-yl)-2-(pyridin-4-yl)pyrido[3,4-d]pyrimidine]
> 10000	0.6	FC(F)c1[nH]ncc1-c1nc(N2CCC3(CCNC3)CC2)c2ccncc2n1 [Example 213, 2-(5-(difluoromethyl)-1H-pyrazol-4-yl)-4-(2,8-diazaspiro[4.5]decan-8-yl)pyrido[3,4-d]pyrimidine]
630	0.14	c1cc(-c2nc(N3CCC4(CC3)CCN(C3CCOC3)C4)c3ccncc3n2)ccn1 (racemic) [Compound 111, 2-(pyridin-4-yl)-4-(2-(tetrahydrofuran-3-yl)-2,8-diazaspiro[4.5]decan-8-yl)pyrido[3,4-d]pyrimidine]
860	0.15	CN1CCC2(CCN(c3nc(-c4ccncc4)nc4cncc(OCC5COC5)c34)CC2)C1 [Compound 270, 4-(2-Methyl-2,8-diazaspiro[4.5]decan-8-yl)-5-(oxetan-3-ylmethoxy)-2-(pyridin-4-yl)pyrido[3,4-d]pyrimidine]
130	–	COc1cncc2nc(-c3ccncc3)nc(N3CCC4(CCN(C)C4)CC3)c12 [Compound 252, 5-Methoxy-4-(2-methyl-2,8-diazaspiro[4.5]decan-8-yl)-2-(pyridin-4-yl)pyrido[3,4-d]pyrimidine formate]

Structure (SMILES)	EC50 [1] [nM]	Ki [2] [nM]
FCCN1CCC2(CCN(c3nc(-c4ccncc4)nc4cnccc34)CC2)C1 [Compound 134, 4-(2-(2-fluoroethyl)-2,8-diazaspiro[4.5]decan-8-yl)-2-(pyridin-4-yl)pyrido[3,4-d]pyrimidine]	1100	0.72
